Legend:
Assay in all cases: standardised AUC of viability dose-response curve (72 h) (fraction (0-1)); higher = less growth inhibition (more resistant)
[1] = tested on: A204
Outline: (§1)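 Sarcoma cell lines in 384-well plates were treated in triplicate for 72 h with 2.5 µl of compound dilution series (compound-plate series 10 mM to 0.0002 mM, 1:3 steps). ATPLite viability was scaled 1 (full) to 0 (none) and fitted per drug and cell line with a four-parameter log-logistic model. The standardised area under the dose-response curve in log-dose space (modified drexplorer computeAUC) runs from 1 (no response) to 0 (full response).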

[2] = tested on: G401
Outline: as §1

[3] = tested on: HS729
Outline: as §1

[4] = tested on: HT1080
Outline: as §1

[5] = tested on: KHOS-240S
Outline: as §1

[6] = tested on: KHOS-NP
Outline: as §1

[7] = tested on: MES-SA
Outline: as §1

[8] = tested on: RD-ES
Outline: as §1

[9] = tested on: RD
Outline: as §1

[10] = tested on: SK-ES-1
Outline: as §1

[11] = tested on: SK-LMS-1
Outline: as §1

[12] = tested on: SW1353
Outline: as §1

[13] = tested on: SW684
Outline: as §1

[14] = tested on: SW872
Outline: as §1

[15] = tested on: SW982
Outline: as §1

[16] = tested on: SYO-1
Outline: as §1

[17] = tested on: VA-ES-BJ
Outline: as §1

Structure (SMILES)	standardised AUC [1]	standardised AUC [2]	standardised AUC [3]	standardised AUC [4]	standardised AUC [5]	standardised AUC [6]	standardised AUC [7]	standardised AUC [8]	standardised AUC [9]	standardised AUC [10]	standardised AUC [11]	standardised AUC [12]	standardised AUC [13]	standardised AUC [14]	standardised AUC [15]	standardised AUC [16]	standardised AUC [17]
Cn1cnc2c(F)c(Nc3ccc(Br)cc3Cl)c(C(=O)NOCCO)cc21 [SELUMETINIB]	0.953	0.904	0.955	0.816	0.89	0.782	0.919	0.986	0.784	0.977	0.748	0.861	0.931	0.79	0.926	0.902	0.887
CCN1CCN(c2ccc(Nc3cc(N(C)C(=O)Nc4c(Cl)c(OC)cc(OC)c4Cl)ncn3)cc2)CC1 [INFIGRATINIB]	0.701	0.719	0.737	0.995	0.896	0.983	0.774	0.926	0.986	0.838	0.965	0.855	0.996	0.95	0.933	0.736	0.943
O=S(=O)(c1cccc2c(O)nccc12)N1CCCNCC1 [HYDROXYFASUDIL]	0.98	0.99	0.917	0.999	0.975	0.981	0.967	1	1	0.976	0.979	0.965	0.95	0.961	0.992	0.958	0.968
CNC(=O)c1cccc2cc(Oc3ccnc4cc(OCC5(N)CC5)c(OC)cc34)ccc12 [LUCITANIB]	0.585	0.853	0.85	1	0.901	0.994	0.908	0.964	0.985	0.95	0.94	0.893	0.973	0.985	0.975	0.74	0.994
COC(=O)c1ccc2c(c1)NC(=O)/C2=C(\Nc1ccc(N(C)C(=O)CN2CCN(C)CC2)cc1)c1ccccc1 [NINTEDANIB]	0.624	0.859	0.88	0.96	0.858	0.961	0.967	0.896	0.93	0.832	0.943	0.966	0.953	0.978	0.941	0.672	0.982
C#Cc1cccc(Nc2ncnc3cc4c(cc23)OCCOCCOCCO4)c1 [ICOTINIB]	0.958	0.995	0.918	0.988	0.99	0.996	0.976	0.985	1	0.986	0.982	0.947	0.986	0.958	0.989	0.966	0.975
C[C@@H]1CN(C(=O)c2ccc(NC(=O)c3cc(O[C@H](C)c4c(Cl)ccc(F)c4Cl)c(N)nn3)cc2)C[C@H](C)N1 [ENSARTINIB]	0.937	0.875	0.878	0.929	0.895	0.975	0.832	0.805	0.852	0.79	0.845	0.933	0.936	0.891	0.808	0.816	0.853
O=C1CCc2c(Oc3ccc4c(c3)[C@@H]3[C@H](O4)[C@H]3c3nc4cc(C(F)(F)F)ccc4[nH]3)ccnc2N1 [LIFIRAFENIB]	0.805	0.946	0.95	0.963	0.938	0.882	0.956	0.988	0.924	0.955	0.904	0.96	0.999	0.87	0.931	0.88	0.987
CS(=O)(=O)CCNCc1ccc(-c2ccc3ncnc(Nc4ccc(OCc5cccc(F)c5)c(Cl)c4)c3c2)o1 [LAPATINIB]	0.915	0.991	0.952	0.99	0.927	0.99	0.924	0.995	0.938	0.928	0.938	0.941	0.989	0.936	0.94	0.924	0.966
O=C(c1ccc(F)c(F)c1Nc1ccc(I)cc1F)N1CC(O)([C@@H]2CCCCN2)C1 [COBIMETINIB]	0.801	0.732	0.899	0.661	0.786	0.657	0.909	0.953	0.653	0.931	0.628	0.844	0.748	0.633	0.867	0.878	0.756
CCc1nc(C(N)=O)c(Nc2ccc(N3CCC(N4CCN(C)CC4)CC3)c(OC)c2)nc1NC1CCOCC1 [GILTERITINIB]	0.817	0.811	0.659	0.899	0.814	0.898	0.785	0.655	0.748	0.663	0.823	0.857	0.791	0.735	0.674	0.665	0.793
C=CC(=O)N1CCC(CNc2ncnc(N)c2-c2ccc(Oc3ccccc3)cc2)CC1 [EVOBRUTINIB]	0.943	0.979	0.929	0.984	0.981	0.995	0.98	0.989	0.996	0.945	0.981	0.947	0.998	0.987	0.994	0.975	0.992
